From publication PMC5769417, “Single- and Multiple-Dose Trials to Determine the Pharmacokinetics, Safety, Tolerability, and Sex Effect of Oral Ginsenoside Compound K in Healthy Chinese Volunteers” (Frontiers in Pharmacology, 2018)
Read-outs that look alike come from different tables or passages of the source.

Columns and labels:
[1] = system: Sprague Dawley (SD) rats; details: cited from earlier work
[2] = Single-dose trial, plasma pharmacokinetics; assay type: in vivo, human; details: for Tmax / half-life / AUC(0-inf) / AUC(0-t) / MRT inf / MRT last / Cmax: both sexes, human, plasma; for Cmax: read-out: Cmax
Procedure: Single-dose pharmacokinetics: The single-dose trial was performed first. […] Drinking before and after medication was prohibited for 2 h, but the amount and time of drinking were not strictly controlled at other times. All subjects had standard lunch and dinner (unified light diet) after medication 4 and 10 h. Single-dose pharmacokinetics: […] We preserved 8 ml specimens into 10 ml centrifuge tubes and stored at −70°C for PK assessment. All samples were preserved at −70°C and analyzed with a LC-MS/MS (API 4000 LC-MS/MS, ABI Company, Foster City, CA, USA) at the Institute of Clinical Pharmacology, Central South University (Changsha, China). […] An aqueous solution of a stable internal standard (IS for CK: digoxin, Shijiaoke Biological Technology Co. Ltd., Beijing, China; IS for PPD: coumarin, Sigma-Aldrich, St. Louis, USA) and 1 M phosphate buffer were added to 0.5 ml of thawed sample, and analytical standards and quality control (QC) samples were prepared in the same matrix. All samples were treated with 2 ml of methyl tert-butyl ether (MTBE, CNW technologies GmbH, Duesseldorf, Germany) to precipitate the bulk of plasma proteins. After mechanical shock by mixing for 10 min and a subsequent centrifugation (4,000 rpm, 4°C, 10 min), 1.4 ml of the supernatant was transferred and blow-dried with nitrogen in a water bath at 40°C. Lastly, the residue was dissolved in 100 μl of mobile phase and then was subjected to a mechanical shock by mixing, and centrifuged. The supernatant was subsequently injected into the column for analysis. […] Accuracy and precision of the assay were determined by evaluating the performance of the assay controls. Over the quantification range, the accuracy of the QC samples varied from 85 to 115% and the intra- and inter-assay imprecision was <15%. PK parameters were derived according to noncompartmental analysis and actual elapsed time from dosing by WinNonlin version 6.1 (Pharsight Corporation, Mountain View, CA, USA). […] The area under the curve (AUC) from time zero to the last time point (AUClast) and the AUC extrapolated to infinity (AUCinf) were calculated using the linear trapezoidal rule. The slope (elimination rate constant, K) of the terminal phase of the plasma concentration-time profile was determined, using a weighting factor of 1, by the method of least squares (log-linear regression of at least three data points). The t1/2 was estimated as (ln2)/K. […] The apparent volume of distribution (V/F) was equal to (CL/F)/K. The mean residence time (MRT) was calculated as the area under the first moments curve (AUMC) divided by AUC. The dose-normalized PK parameters e.g., Cmax/D and AUClast/D, were obtained by dividing each PK result by the administered dose. The cumulative excretion rate was calculated as the amount of unchanged drug in the urine over a time interval divided by the dose and was expressed as thousand points (‰).

[3] = system: beagle dogs; details: cited from earlier work
[4] = single-dose trial, 25 mg oral, fasting
[5] = single-dose trial, 50 mg oral, fasting
[6] = single-dose trial, 100 mg oral, fasting
[7] = single-dose trial, 200 mg oral, fasting
[8] = single-dose trial, 400 mg oral, fasting
[9] = single-dose trial, 600 mg oral, fasting
[10] = single-dose trial, 800 mg oral, fasting

CC(C)=CCC[C@](C)(OC1O[C@H](CO)[C@@H](O)[C@H](O)[C@H]1O)[C@H]1CC[C@]2(C)[C@@H]1[C@H](O)C[C@@H]1[C@@]3(C)CC[C@H](O)C(C)(C)[C@@H]3CC[C@]12C (stereo partly drawn) [CK, 20-O-beta-D-glucopyranosyl-20(S)-protopanaxadiol]
dose at which diarrhea symptom occurred ([1]; long-term toxicity test, Sprague Dawley (SD) rats): 150 mg/kg
No observed adverse effect level (NOAEL) ([1]; rats): 25.0 mg/kg
Tmax ([2]; oral, both trials, all doses, read-out: range of time to maximum concentration (Tmax)): 1.5 to 6 h
Tmax ([2]; oral, medians, both trials, read-out: Tmax in this study): 2.5 to 3.8 h
half-life ([2]; oral, single-dose trial, 25–800 mg, read-out: mean t1/2 across the dose groups): 13.5 to 26.2 h
Tmax ([2]; oral, single-dose trial, 25–800 mg, read-out: median Tmax across the dose groups): 2.5 to 3.3 h
Tmax ([2]; po, 25 mg, single-dose trial, 25 mg oral, fasting, read-out: Tmax, median (range)): 3 h
Tmax ([2]; po, 50 mg, single-dose trial, 50 mg oral, fasting, read-out: Tmax, median (range)): 3 h
Tmax ([2]; po, 100 mg, single-dose trial, 100 mg oral, fasting, read-out: Tmax, median (range)): 3 h
Tmax ([2]; po, 200 mg, single-dose trial, 200 mg oral, fasting, read-out: Tmax, median (range)): 3.3 h
Tmax ([2]; po, 400 mg, single-dose trial, 400 mg oral, fasting, read-out: Tmax, median (range)): 3 h
AUC(0-inf) [2, 4]: 1.27 ± 0.276 µg·h/mL
AUC(0-t) [2, 4]: 1.23 ± 0.267 µg·h/mL
MRT inf [2, 4]: 10.9 ± 1.9 h
MRT last [2, 4]: 8.9 ± 1.3 h
Cmax [2, 4]: 0.175 ± 0.0351 µg/mL
half-life ([2]; single-dose trial, 25 mg oral, fasting, read-out: t1/2 (converted)): 13.5 ± 0.6 h
AUC(0-inf) [2, 5]: 2.25 ± 0.861 µg·h/mL
AUC(0-t) [2, 5]: 2.12 ± 0.77 µg·h/mL
MRT inf [2, 5]: 12.5 ± 2.4 h
MRT last [2, 5]: 9.1 ± 0.7 h
Cmax [2, 5]: 0.3 ± 0.0985 µg/mL
half-life ([2]; single-dose trial, 50 mg oral, fasting, read-out: t1/2 (converted)): 15.9 ± 4.2 h
AUC(0-inf) [2, 6]: 2.82 ± 1.44 µg·h/mL
AUC(0-t) [2, 6]: 2.76 ± 1.42 µg·h/mL
MRT inf [2, 6]: 13.7 ± 1 h
MRT last [2, 6]: 11.4 ± 0.9 h
Cmax [2, 6]: 0.351 ± 0.18 µg/mL
half-life ([2]; single-dose trial, 100 mg oral, fasting, read-out: t1/2 (converted)): 22.4 ± 3.3 h
AUC(0-inf) [2, 7]: 6.09 ± 3.6 µg·h/mL
AUC(0-t) [2, 7]: 5.96 ± 3.52 µg·h/mL
MRT inf [2, 7]: 13.8 ± 1.6 h
MRT last [2, 7]: 11.5 ± 1.4 h
Cmax [2, 7]: 0.734 ± 0.408 µg/mL
half-life ([2]; single-dose trial, 200 mg oral, fasting, read-out: t1/2 (converted)): 21.6 ± 5.5 h
AUC(0-inf) [2, 8]: 8.24 ± 2.05 µg·h/mL
AUC(0-t) [2, 8]: 8.1 ± 2.02 µg·h/mL
MRT inf [2, 8]: 14 ± 1.5 h
MRT last [2, 8]: 11.9 ± 1.1 h
Cmax [2, 8]: 1.03 ± 0.295 µg/mL
half-life ([2]; single-dose trial, 400 mg oral, fasting, read-out: t1/2 (converted)): 22.3 ± 4 h
AUC(0-inf) [2, 9]: 9.28 ± 4.24 µg·h/mL
AUC(0-t) [2, 9]: 9.09 ± 4.2 µg·h/mL
MRT inf [2, 9]: 15.9 ± 2.8 h
MRT last [2, 9]: 12.7 ± 0.9 h
Cmax [2, 9]: 1.16 ± 0.466 µg/mL
half-life ([2]; single-dose trial, 600 mg oral, fasting, read-out: t1/2 (converted)): 26.2 ± 6.3 h
AUC(0-inf) [2, 10]: 9.2 ± 4.18 µg·h/mL
AUC(0-t) [2, 10]: 8.99 ± 4.1 µg·h/mL
MRT inf [2, 10]: 14.7 ± 2.6 h
MRT last [2, 10]: 12 ± 1.8 h
Cmax [2, 10]: 1.18 ± 0.445 µg/mL
half-life ([2]; single-dose trial, 800 mg oral, fasting, read-out: t1/2 (converted)): 25.7 ± 3 h
CL/F [2, 4]: 20.5 ± 4.7 l·h ^−1
V/F [2, 4]: 397 ± 86 L
CL/F [2, 5]: 25.9 ± 11.2 l·h ^−1
V/F [2, 5]: 559 ± 185 L
CL/F [2, 6]: 44.5 ± 21.6 l·h ^−1
V/F [2, 6]: 1381 ± 546 L
CL/F [2, 7]: 47.7 ± 31.2 l·h ^−1
V/F [2, 7]: 1287 ± 563 L
CL/F [2, 8]: 51.2 ± 12.3 l·h ^−1
V/F [2, 8]: 1613 ± 379 L
CL/F [2, 9]: 76.1 ± 32.1 l·h ^−1
V/F [2, 9]: 3057 ± 2094 L
CL/F [2, 10]: 106 ± 50.3 l·h ^−1
V/F [2, 10]: 3993 ± 2136 L
No observed adverse effect level (NOAEL) [3]: 7.5 mg/kg
dose at which diarrhea symptom occurred ([3]; long-term toxicity test): 75 mg/kg
